Several values for one entry are separate records, joined by “and”; a condition that tells them apart may be missing. Equal values may be shown once. Read-outs that look alike come from different tables or passages of the source.
Legend:
NucL = type: biochemical, Streptomyces sp. MBE174; conditions: for effect of the chemical substance on NucL activity (in words): summary of Table 3
Procedure: (§1) In this case, 1 U represents an amount of enzymes necessary to increase the absorbancy of 260 nm by one for 30 minutes when the enzymes works on the following as substrate: Salmon sperm DNA 1 mg/mL (manufactured by Invitrogen; Cat no. 15632-011).
(§2) NucS and NucL were kept in contact with the compounds listed in Table 3 on an ice bath for one hour, and then, the enzyme activity was measured by the standard specific activity measurement method (referring to Table 3). […] Incidentally, poorly water-soluble compounds were dissolved in dimethyl sulfoxide, and then added to an enzyme solution. The final concentration of dimethyl sulfoxide after addition was 5 percent. The activity in the presence of 5 percent of dimethyl sulfoxide was regarded as being 100 percent.

NucS = type: biochemical, Streptomyces sp. MBE174
Procedure: as §1, §2

Salmon sperm DNA = assay: standard specific activity measurement method (increase of absorbancy at 260 nm); type: biochemical; conditions: fraction after each purification step of NucS (Table 1)
Procedure: The specific activity of NucS was measured at 37 degrees Celsius in 20 mM of Tris/HCl at pH 8.5 that contains 1 mM of MgCl2 and 1 mM of CaCl2 (a measurement method under the condition described here is also referred to as a standard specific activity measurement method, hereinafter); the specific activity was 3.6×10^6 U/mg-protein, which was a very high level of specific activity. In this case, 1 U represents an amount of enzymes necessary to increase the absorbancy of 260 nm by one for 30 minutes when the enzymes works on the following as substrate: Salmon sperm DNA 1 mg/mL (manufactured by Invitrogen; Cat no. 15632-011). As a reference, as for NucS, when the specific activity of Benzonase (Registered Trademark), which was a commercially available nucleolytic enzyme that had the highest specific activity among those listed in a brochure, was measured under the conditions described in the brochure (37 degrees Celsius) with the use of the same substrate; the specific activity was 9.4×10^5 U/mg-protein. As a result, it became clear that the specific activity of NucS is about 3.8 times higher than that of Benzonase.
The specific activity of NucL was 5.6×10^4 U/mg-protein at 37 degrees Celsius in 20 mM of Tris/HCl at pH 8.5 that contains 1 mM of MgCl2 and 1 mM of CaCl2. The isoelectric point was measured by using Novex (Registered Trademark) IEF pH-3-10 gel (manufactured by Invitrogen); and then pl was 7.0. Then, it was determined that a N-terminal amino acid sequence of the purified enzyme was DSVRIHDIQGTTR. The sequence matched 12 out of 13 amino acids of putative protein (putative secreted hydrolase) coded on a genome of Streptomyces scabiei 87.22, and of putative protein (large secreted protein) coded on a genome of S. avermitilis MA-4680.

[1] = chemical at 0.1%, contact on ice bath one hour, additive-free = 100
[2] = chemical at 1.0%, contact on ice bath one hour, additive-free = 100
[3] = chemical at 1.0 mM, contact on ice bath one hour, additive-free = 100
[4] = chemical at 5.0 mM, contact on ice bath one hour, additive-free = 100
[5] = chemical at 0.1 mM, contact on ice bath one hour, additive-free = 100
[6] = chemical at 10.0%, contact on ice bath one hour, additive-free = 100
[7] = chemical at 20.0%, contact on ice bath one hour, additive-free = 100
[8] = chemical at 2.0M, contact on ice bath one hour, additive-free = 100
[9] = chemical at 4.0M, contact on ice bath one hour, additive-free = 100
[10] = chemical at 6.0M, contact on ice bath one hour, additive-free = 100

In the case of `O=C(O)CI` [Iodoacetic acid], the “Relative activity of NucL (%)” value (NucL) is reported as 102% and 97% and the “Relative activity of NucS (%)” value (NucS) is reported as 103% and 96%.

For `CCCCCCCCCCCCOS(=O)(=O)[O-].[Na+]` [SDS], the “Relative activity of NucL (%)” value (NucL; [1]) was 89%, the “Relative activity of NucL (%)” value (NucL; [2]) was 121% and the “effect of the chemical substance on NucL activity (in words)” value (from here on “effect … on NucL activity (in words)”) (NucL) was “high resistance”. For the same compound, the “Relative activity of NucS (%)” value (NucS; [1]) was 85% and the “Relative activity of NucS (%)” value (NucS; [2]) was 0%.

With `O[C@H](CS)[C@H](O)CS` (racemic) [Dithiothreitol] the “Relative activity of NucL (%)” value (NucL; [3]) was 89%, the “Relative activity of NucL (%)” value (NucL; [4]) was 89% and the “Relative activity of NucS (%)” value (NucS; [3]) was 105%. The “Relative activity of NucS (%)” value (NucS; [4]) was 104%.

For `O=C(O)c1cc[c]([Hg][Cl])cc1` [Parachloro mercury benzoate], the “Relative activity of NucL (%)” value (NucL; [5]) was 108%, the “Relative activity of NucL (%)” value (NucL; [3]) was 91% and the “Relative activity of NucS (%)” value (NucS; [5]) was 92%. For the same compound, the “Relative activity of NucS (%)” value (NucS; [3]) was 94%.

For `C[S+](C)[O-]` [Dimethyl sulfoxide], the “Relative activity of NucL (%)” value (NucL; [2]) was 105%, the “Relative activity of NucL (%)” value (NucL; [6]) was 75% and the “Relative activity of NucL (%)” value (NucL; [7]) was 40%. For the same compound, the “Relative activity of NucS (%)” value (NucS; [2]) was 110%, the “Relative activity of NucS (%)” value (NucS; [6]) was 116% and the “Relative activity of NucS (%)” value (NucS; [7]) was 113%. The “effect of the chemical substance on NucS activity (in words)” value (“effect … on NucS activity (in words)” below) (NucS; summary of Table 3) was “high resistance”.

Hydroxyapatite was tested, and the “Specific activity (U/mg)” value (Salmon sperm DNA) was 38596 U/mg.

`[Cl][Cu][Cl]` [CuCl2] was tested, and the “Relative activity of NucL (%)” value (NucL; [5]) was 96%, the “Relative activity of NucL (%)” value (NucL; [3]) was 9% and the “effect … on NucL activity (in words)” value (NucL) was “strongly inhibited”. The “Relative activity of NucS (%)” value (NucS; [5]) was 111%, the “Relative activity of NucS (%)” value (NucS; [3]) was 3% and the “effect … on NucS activity (in words)” value (NucS; summary of Table 3) was “strongly inhibited”.

In the case of Triton X, the “Relative activity of NucL (%)” value (NucL; [1]) is reported as 137%, the “Relative activity of NucL (%)” value (NucL; [2]) is reported as 128% and the “Relative activity of NucS (%)” value (NucS; [1]) is reported as 115%. The “Relative activity of NucS (%)” value (NucS; [2]) was 108%.

In the case of `CN(C)C=O` [Dimethyl formamide], the “Relative activity of NucL (%)” value (NucL; [2]) is reported as 99%, the “Relative activity of NucL (%)” value (NucL; [6]) is reported as 74% and the “Relative activity of NucL (%)” value (NucL; [7]) is reported as 56%. For the same compound, the “Relative activity of NucS (%)” value (NucS; [2]) was 91%, the “Relative activity of NucS (%)” value (NucS; [6]) was 118% and the “Relative activity of NucS (%)” value (NucS; [7]) was 117%. For the same compound, the “effect … on NucS activity (in words)” value (NucS; summary of Table 3) was “high resistance”.

With `[Cl-].[Cl-].[Zn+2]` [ZnCl2] the “Relative activity of NucL (%)” value (NucL; [5]) was 1%, the “Relative activity of NucL (%)” value (NucL; [3]) was 0% and the “effect … on NucL activity (in words)” value (NucL) was “strongly inhibited”. The “Relative activity of NucS (%)” value (NucS; [5]) was 3%, the “Relative activity of NucS (%)” value (NucS; [3]) was 0% and the “effect … on NucS activity (in words)” value (NucS; summary of Table 3) was “strongly inhibited”.

In the case of `O=C(O)CN(CCN(CC(=O)O)CC(=O)O)CC(=O)O` [Ethylenediaminetetraacetic acid], the “Relative activity of NucL (%)” value (NucL; [4]) is reported as 0%, the “Relative activity of NucL (%)” value (NucL; chemical at 10.0 mM, contact on ice bath one hour, additive-free = 100) is reported as 0% and the “effect … on NucL activity (in words)” value (NucL) is reported as “strongly inhibited”. For the same compound, the “Relative activity of NucS (%)” value (NucS) was 0% and the “effect … on NucS activity (in words)” value (NucS) was “strongly inhibited”.

In the case of `OCCS` [Melcaptoethanol], the “Relative activity of NucL (%)” value (NucL; [3]) is reported as 89%, the “Relative activity of NucL (%)” value (NucL; [4]) is reported as 92% and the “Relative activity of NucS (%)” value (NucS; [3]) is reported as 112%. For the same compound, the “Relative activity of NucS (%)” value (NucS; [4]) was 116%.

`O=S(=O)(F)Cc1ccccc1` [Phenylmethanesulfonyl fluoride] was tested, and the “Relative activity of NucL (%)” value (NucL; [3]) was 111%, the “Relative activity of NucL (%)” value (NucL; [4]) was 99% and the “Relative activity of NucS (%)” value (NucS; [3]) was 85%. The “Relative activity of NucS (%)” value (NucS; [4]) was 87%.

With `NC(N)=O` [Urea] the “Relative activity of NucL (%)” value (NucL; [8]) was 64%, the “Relative activity of NucL (%)” value (NucL; [9]) was 55% and the “Relative activity of NucL (%)” value (NucL; [10]) was 43%. For the same compound, the “Relative activity of NucS (%)” value (NucS; [8]) was 125%, the “Relative activity of NucS (%)” value (NucS; [9]) was 126% and the “Relative activity of NucS (%)” value (NucS; [10]) was 92%.

— US9217139B2, “Extracellularly secreted nuclease” (JAPAN AGENCY FOR MARINE-EARTH SCIENCE AND TECHNOLOGY, priority 2010, dated 2015)
